14 compounds from PubChem BioAssay (NCI) can be followed below.

Among the test systems are MDA-MB-231 breast; HCC-2998 colon; 786-0 renal; UACC-257 melanoma; OVCAR-8 ovarian; IGROV1 ovarian; NCI/ADR-RES ovarian; SNB-19 CNS; HL-60(TB) leukemia; SR leukemia; SNB-75 CNS.
Holding throughout (test): growth of human tumour cells (NCI), 48 h

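Cells were grown in 96-well plates and exposed to each compound for 48 hours at five concentrations; endpoints were interpolated linearly between bracketing concentrations, or set to the highest concentration if not reached. The concentration for 50% growth inhibition is given as GI50. The concentration for full growth arrest is given as TGI.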

In the case of `O=C(N/N=C(/COc1ccc(Cl)cc1)N=Cc1ccncc1)c1ccncc1`, the TGI in the test on MDA-MB-231 breast, in the test on HCC-2998 colon, in the test with 786-0 renal, in the test with UACC-257 melanoma, in the test with OVCAR-8 ovarian and with IGROV1 ovarian was greater than 100 µM each time. The TGI with NCI/ADR-RES ovarian, in the test on SNB-19 CNS and with HL-60(TB) leukemia was greater than 100 µM in each case.
In the case of `CC1CCC(n2c3cnccc3c3cnc(Nc4ccc5c(n4)CCN(C(=O)CO)C5)nc32)CC1` (centres undefined), the GI50 was 1.38 µM in the test on MDA-MB-231 breast, 0.239 µM with SR leukemia, greater than 100 µM in the test on UACC-257 melanoma and 0.845 µM in the test on SNB-19 CNS. Moreover, the TGI in the test on MDA-MB-231 breast, with SR leukemia, with UACC-257 melanoma and with SNB-19 CNS was greater than 100 µM each time.
Consider `CC(C)(C)OC(=O)N[C@H]1CCN(C2CCCCC2)C1=O`, for which the TGI with MDA-MB-231 breast, with HCC-2998 colon, in the test on SNB-75 CNS, with 786-0 renal, in the test with OVCAR-8 ovarian and with IGROV1 ovarian was greater than 100 µM in each case. In addition, the TGI with NCI/ADR-RES ovarian, in the test on SNB-19 CNS and in the test with HL-60(TB) leukemia was greater than 100 µM in each case.
Take `CC(C)CCS(=O)(=O)OCCCCOS(=O)(=O)CCC(C)C`: the TGI with HCC-2998 colon, in the test on SNB-75 CNS, in the test on 786-0 renal, in the test with SR leukemia, in the test on UACC-257 melanoma and with OVCAR-8 ovarian was greater than 100 µM in each case. The TGI in the test on IGROV1 ovarian, in the test with SNB-19 CNS and in the test on HL-60(TB) leukemia was greater than 100 µM each time.
For `COC(=O)C1SC(SC)=NC12c1ccccc1Nc1ccccc12` (centres undefined), the TGI was 74.3 µM in the test on HCC-2998 colon; greater than 100 µM in the test on SNB-75 CNS; greater than 100 µM in the test on 786-0 renal; 53.4 µM in the test with SR leukemia; 84.6 µM in the test with UACC-257 melanoma; greater than 100 µM in the test with OVCAR-8 ovarian. In addition, the TGI is greater than 100 µM in the test with IGROV1 ovarian, greater than 100 µM with NCI/ADR-RES ovarian, greater than 100 µM in the test with SNB-19 CNS and 87.9 µM in the test on HL-60(TB) leukemia.
`CCOC(=O)C1(C/C=C/CBr)Cc2ccccc2C1=O` (centres undefined): the TGI with MDA-MB-231 breast is 28.9 µM; in the test with HCC-2998 colon it was 21.3 µM; in the test on SNB-75 CNS, 31.9 µM; with 786-0 renal, 25.8 µM; in the test with UACC-257 melanoma it was 22.6 µM; in the test on OVCAR-8 ovarian, 7.34 µM. In addition, the TGI in the test on IGROV1 ovarian is 10.3 µM; in the test on NCI/ADR-RES ovarian, 5.02 µM; with SNB-19 CNS, 37.2 µM; with HL-60(TB) leukemia, greater than 100 µM.
Regarding `Cc1cn2c(/C=N/N=C(N)N)c(-c3cccc([N+](=O)[O-])c3)nc2s1`, the TGI in the test with MDA-MB-231 breast came out at 2.71 µM; in the test on HCC-2998 colon, 2.83 µM; with 786-0 renal it was 7.08 µM; in the test with UACC-257 melanoma it was 4.22 µM; in the test with OVCAR-8 ovarian, 3.7 µM; in the test on IGROV1 ovarian it was 19.7 µM. Besides, the results for the TGI with NCI/ADR-RES ovarian and in the test with HL-60(TB) leukemia were greater than 100 µM and 3.86 µM, respectively.
With `COc1cccc(C(=O)O[C@H]2[C@@H]3[C@]4(OC(C)=O)CO[C@@H]4C[C@H](O)[C@@]3(C)C(=O)[C@H](OC(C)=O)C3=C(C)[C@@H](OC(=O)[C@H](O)[C@@H](NC(=O)OC(C)(C)C)c4ccco4)C[C@]2(O)C3(C)C)c1`, the TGI is greater than 37.5 µM with MDA-MB-231 breast; 0.0241 µM in the test on SNB-75 CNS; greater than 37.5 µM in the test on 786-0 renal; greater than 14.8 µM in the test with SR leukemia; greater than 37.5 µM with UACC-257 melanoma; greater than 14.4 µM with OVCAR-8 ovarian. Besides, the values for the TGI with IGROV1 ovarian, in the test with NCI/ADR-RES ovarian and with SNB-19 CNS were greater than 37.5 µM, greater than 18.3 µM and greater than 30 µM, respectively.
Consider `CC(C)(C)N1CSC(=S)N(Cc2ccco2)C1`, for which the TGI in the test on HCC-2998 colon was found to be 13.3 µM; in the test with SNB-75 CNS, 26.4 µM; in the test on 786-0 renal it was 11.5 µM; in the test with SR leukemia it was 3.55 µM; in the test on UACC-257 melanoma, 25 µM; in the test with OVCAR-8 ovarian it was 5.63 µM. In addition, the TGI stood at 12.6 µM with IGROV1 ovarian, 18.4 µM with NCI/ADR-RES ovarian, 14.5 µM with SNB-19 CNS and 4.03 µM in the test on HL-60(TB) leukemia.
As to `COc1cc(C2c3cc4c(cc3OC(N3CCOCC3)C2C)OCO4)ccc1O` (centres undefined), the TGI in the test on HCC-2998 colon is 52.5 µM; with SNB-75 CNS it was greater than 58 µM; in the test on 786-0 renal, greater than 100 µM; with SR leukemia, greater than 68.9 µM; in the test on UACC-257 melanoma, greater than 100 µM; in the test on OVCAR-8 ovarian, greater than 100 µM. The TGI in the test on IGROV1 ovarian is greater than 100 µM; in the test with NCI/ADR-RES ovarian it was 52.2 µM; in the test with SNB-19 CNS, greater than 100 µM; in the test with HL-60(TB) leukemia it was 23.6 µM.
Consider `COc1ccc(-c2c(C#N)c(-c3ccc(C)cc3)n(NS(=O)(=O)c3ccc(C)cc3)c(=O)c2C#N)cc1`, for which the TGI in the test on MDA-MB-231 breast, in the test with HCC-2998 colon, in the test with SNB-75 CNS, in the test with 786-0 renal, with UACC-257 melanoma and with OVCAR-8 ovarian was greater than 100 µM each time. Also, the TGI with IGROV1 ovarian, in the test on NCI/ADR-RES ovarian and in the test on SNB-19 CNS was greater than 100 µM throughout.
Consider `CC(=O)OC1CC(OC2C(O)CC(OC3C(O)CC(OC4CCC5(C)C(CCC6C5CC(O)C5(C)C(C7=CC(=O)OC7)CCC65O)C4)OC3C)OC2C)OC(C)C1OC1OC(CO)C(O)C(O)C1O` (centres undefined), for which the TGI with MDA-MB-231 breast was determined as 2.41 µM; in the test on HCC-2998 colon it was 0.441 µM; in the test on SNB-75 CNS it was 0.846 µM; with 786-0 renal it was 0.107 µM; in the test with UACC-257 melanoma it was 0.767 µM; in the test with OVCAR-8 ovarian it was 0.204 µM. Besides, the TGI is 1.11 µM in the test with IGROV1 ovarian, 0.122 µM in the test on NCI/ADR-RES ovarian, 0.957 µM in the test on SNB-19 CNS and 0.22 µM with HL-60(TB) leukemia.
As for `O=[N+]([O-])c1ccc2c(c1)c(OCc1ccccc1)nn2Cc1ccccc1`, the TGI in the test with MDA-MB-231 breast, in the test with HCC-2998 colon, in the test with 786-0 renal, in the test with UACC-257 melanoma, in the test with OVCAR-8 ovarian and in the test with IGROV1 ovarian was greater than 100 µM each time. Besides, the TGI in the test on NCI/ADR-RES ovarian, with SNB-19 CNS and in the test on HL-60(TB) leukemia was greater than 100 µM in each case.
`O=C1c2ccccc2-c2c1c1ccccc1c(=O)n2CCNCCNCCNCCn1c2c(c3ccccc3c1=O)C(=O)c1ccccc1-2`: the GI50 in the test with MDA-MB-231 breast was 0.136 µM; with HCC-2998 colon, 0.591 µM; in the test with NCI/ADR-RES ovarian, 3.9 µM; in the test with SNB-19 CNS, 2.35 µM; in the test with HL-60(TB) leukemia, 1.8 µM. Further, the TGI with MDA-MB-231 breast is 1.01 µM; in the test on HCC-2998 colon, 6.11 µM; with NCI/ADR-RES ovarian, greater than 54.9 µM; in the test with SNB-19 CNS, greater than 100 µM.
